Results: US6630469B2, “5-HT7 receptor antagonists” (Bristol-Myers Squibb Company, priority 2000, dated 2003)
“And” between values parts separate entries of the source, which are not always exact repeats. Identical values can stand only once.

Target: T1, human 5-HT7 receptor (Homo sapiens, UniProt P34969)
T1 construct: expressed in transfected cells; host or cells: CHO cells
Assay: 5-HT7 Receptor Binding Assay
Conditions: membranes of CHO cells expressing human 5-HT7 receptor; 1 nM 3H-5-carboxamidotryptamine; 25° C., 60 minutes
Experimental: 5-HT7 Receptor Binding Assay
Membranes are prepared for binding using the human 5-HT7 receptor expressed in CHO cells. Cells are collected and ruptured using a dounce homogenizer. The cells are spun at 18000× g for 10 minutes and the pellet is resuspended in assay buffer, frozen in liquid nitrogen and kept at −80° C. until the day of the assay.
A total of 30 ug protein is used per well. The assay is carried out in 96-deep-well plates. The assay buffer is 50 mM HEPES. The membrane preparation is incubated at 25° C. for 60 minutes with 0.1 nM to 1000 nM test compound and 1 nM ^3H-5-carboxamidotryptamine. 10 uM serotonin is used as blocking agent to determine non-specific binding. The reaction is terminated by the addition of 1 ml of ice cold 5OmM HEPES buffer and rapid filtration through a Brandel Cell Harvester using Whatman GF/B filters. The filter pads are counted in an LKB Trilux liquid scintillation counter. IC50 values are determined using non-linear regression by Exel-fit.

T1 sequence (P34969 whole entry): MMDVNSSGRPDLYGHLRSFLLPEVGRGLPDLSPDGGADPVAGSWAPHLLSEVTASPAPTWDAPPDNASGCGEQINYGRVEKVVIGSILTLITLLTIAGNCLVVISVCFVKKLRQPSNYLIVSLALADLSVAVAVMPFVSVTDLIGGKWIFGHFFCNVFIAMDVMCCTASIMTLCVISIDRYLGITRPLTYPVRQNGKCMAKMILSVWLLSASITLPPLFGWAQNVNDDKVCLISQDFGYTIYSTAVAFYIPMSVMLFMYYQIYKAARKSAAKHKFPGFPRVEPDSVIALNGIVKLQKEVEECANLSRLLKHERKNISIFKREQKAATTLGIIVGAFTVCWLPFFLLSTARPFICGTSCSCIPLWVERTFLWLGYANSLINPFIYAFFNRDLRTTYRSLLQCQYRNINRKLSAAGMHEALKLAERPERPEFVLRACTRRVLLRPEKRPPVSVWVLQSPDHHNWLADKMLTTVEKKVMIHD

IC50	Structure (SMILES)
51 to 100 nM	Fc1cccc(CNc2ccnc(NCCOc3ccccc3)n2)c1 [N^4-(3-Fluorophenylmethyl)-N^2-(2-phenoxyethyl)pyrimidine-2,4-diamine]
≤ 50 nM	Cc1cccc(CNc2ccnc(NCCOc3ccccc3)n2)c1 [N^4-(3-Methylphenylmethyl)-N^2-(2-phenoxyethyl)pyrimidine-2,4-diamine]
≤ 50 nM	CC(Nc1nccc(NCCOc2ccc(F)cc2)n1)c1ccccc1 (stereo not shown) [N^4-[2-(4-Fluorophenoxy)ethyl]-N^2-(1-phenylethyl)pyrimidine-2,4-diamine]
≤ 50 nM	CC(Nc1ccnc(NCCc2ccccc2)n1)c1ccc(F)cc1 (stereo not shown) [N^4-[1-(4-Fluorophenyl)ethyl]-N^2-(2-phenylethyl)pyrimidine-2,4-diamine]
≤ 50 nM	COc1cccc(CCNc2nc(C)cc(N[C@@H](C)c3ccccc3)n2)c1 [N^2-[2-(3-Methoxyphenyl)ethyl]-6-methyl-N^4-[(1S)-1-phenylethyl]pyrimidine-2,4-diamine]
≤ 50 nM	FC(F)(F)c1cccc(CNc2ccnc(NCCc3ccccc3)n2)c1 [N^2-(2-Phenylethyl)-N^4-[3-(trifluoromethyl)phenylmethyl]pyrimidine-2,4-diamine]
≤ 50 nM	CC(Nc1ccnc(NCCc2cccc(F)c2)n1)c1ccccc1 (stereo not shown) [N^2-[2-(3-Fluorophenyl)ethyl]-N^4-(1-phenylethyl)pyrimidine-2,4-diamine]
≤ 50 nM	Fc1ccc(CNc2ccnc(NCCOc3ccccc3)n2)cc1F [N^4-(3,4-Difluorophenylmethyl)-N^2-(2-phenoxyethyl)pyrimidine-2,4-diamine]
51 to 100 nM	CC[C@@H](Nc1ccnc(NCCc2ccccc2)n1)c1ccccc1 [N^2-(2-Phenylethyl)-N^4-[(1R)-1-phenylpropyl]pyrimidine-2,4-diamine]
≤ 50 nM	CC(Nc1ccnc(NCCc2ccc(O)cc2)n1)c1ccccc1 (stereo not shown) [N^2-[2-(4-Hydroxyphenyl)ethyl]-N^4-(1-phenylethyl)pyrimidine-2,4-diamine]
51 to 100 nM	Fc1ccc(CNc2ccnc(NCCOc3ccccc3)n2)cc1C(F)(F)F [N^4-[4-Fluoro-3-(trifluoromethyl)phenylmethyl]-N^2-(2-phenoxyethyl)pyrimidine-2,4-diamine]
101 to 200 nM	Fc1cc(F)cc(CNc2ccnc(NCCOc3ccccc3)n2)c1 [N^4-(3,5-Difluorophenylmethyl)-N^2-(2-phenoxyethyl)pyrimidine-2,4-diamine]
≤ 50 nM	Fc1ccc(CNc2ccnc(NCCc3ccccc3)n2)cc1F [N^4-(3,4-Difluorophenylmethyl)-N^2-(2-phenylethyl)pyrimidine-2,4-diamine]
101 to 200 nM	C[C@H](Nc1cc(NCCc2ccc(Br)cc2)ncn1)c1ccccc1 [N^4-[2-(4-Bromoophenyl)ethyl]-N^6-[(1S)-1-phenylethyl]pyrimidine-4,6-diamine]
≤ 50 nM	Fc1ccc(CNc2ccnc(NCCc3ccccc3)n2)cc1Cl [N^4-(3-Chloro-4-fluorophenylmethyl)-N^2-(2-phenylethyl)pyrimidine-2,4-diamine]
101 to 200 nM	Fc1ccc(CNc2ccnc(NCCc3ccccc3)n2)cc1C(F)(F)F [N^4-[4-Fluoro-3-(trifluoromethyl)phenylmethyl]-N^2-(2-phenylethyl)pyrimidine-2,4-diamine]
101 to 200 nM	COc1ccc(CCNc2nc(C)cc(N[C@@H](C)c3ccccc3)n2)cc1 [N^2-[2-(4-Methoxyphenyl)ethyl]-6-methyl-N^4-[(1S)-1-phenylethyl]pyrimidine-2,4-diamine]

The remaining lines, values behind:

Structure (SMILES)	IC50
CC[C@H](Nc1ccnc(NCCOc2ccccc2)n1)c1ccccc1 [N^2-(2-Phenoxyethyl)-N^4-[(1S)-1-phenylpropyl]pyrimidine-2,4-diamine]	≤ 50 nM
CC(Nc1ccnc(NCCc2cccc(O)c2)n1)c1ccccc1 (stereo not shown) [Compound 21, N^2-[2-(3-Hydroxyphenyl)ethyl]-N^4-(1-phenylethyl)pyrimidine-2,4-diamine]	≤ 50 nM
CC(Nc1nc(N)nc(NC[C@@H]2C[C@H]2c2ccccc2F)n1)c1ccccc1 (mixture of isomers) [(±)-trans-N-[2-(2-Fluoro-phenyl)-cyclopropylmethyl]-N′-(1-phenyl-ethyl)-[1,3,5]triazine-2,4,6-triamine]	≤ 100 nM and > 50 nM
C[C@H](Nc1ccnc(NCCOc2ccccc2)n1)c1cccc2ccccc12 [Compound 17, N^4-[(1S)-1-(1-Napthalenyl)ethyl]-N^2-(2-phenoxyethyl)pyrimidine-2,4-diamine]	≤ 50 nM
C[C@H](Nc1nc(N)nc(NCCOc2ccc(F)c(F)c2)n1)c1ccc([N+](=O)[O-])cc1 [Compound 47, N^2-[2-(3,4-Difluorophenoxy)ethyl]-N^4-[(1S)-1-(4-nitrophenyl)ethyl]-1,3,5-triazine-2,4,6-triamine]	51 to 100 nM
c1ccc(OCCNc2nccc(NCc3ccco3)n2)cc1 [Compound 4, N^4-(2-Furanylmethyl)-N^2-(2-phenoxyethyl)pyrimidine-2,4-diamine]	101 to 200 nM
C[C@H](Nc1nc(N)nc(NCCc2cccc(Cl)c2)n1)c1ccccc1 [Compound 62, N^2-[2-(3-Chlorophenyl)ethyl]-N^4-[(1S)-1-phenylethyl]-1,3,5-triazine-2,4,6-triamine]	≤ 50 nM
CC(Nc1ccnc(NCCc2c[nH]c3ccc(F)cc23)n1)c1ccccc1 (stereo not shown) [Compound 3]	101 to 200 nM
CC(Nc1ccnc(NCCc2c[nH]c3cc(F)ccc23)n1)c1ccccc1 (stereo not shown) [Compound 31, N^2-[2-(6-Fluoro-1H-indol-3-yl)ethyl]-N^4-(1-phenylethyl)pyrimidine-2,4-diamine]	≤ 50 nM
CC(Nc1nc(N)nc(NC[C@@H]2C[C@H]2c2ccncc2)n1)c1ccccc1 (mixture of isomers) [(±)-trans-N-(1-Phenyl-ethyl)-N′-(2-pyridin-4-yl-cyclopropylmethyl)-[1,3,5]triazine-2,4,6-triamine]	≤ 50 nM
C[C@H](Nc1nc(N)nc(NCCc2ccc(Cl)c(Cl)c2)n1)c1ccccc1 [Compound 71, N^2-[2-(3,4-Dichlorophenyl)ethyl]-N^4-[(1S)-1-phenylethyl]-1,3,5-triazine-2,4,6-triamine]	≤ 50 nM
C[C@H](Nc1ccnc(NCCOc2ccccc2)n1)c1ccc(Br)cc1 [Compound 13, N^4-[(1S)-1-(4-Bromophenyl)ethyl]-N^2-(2-phenoxyethyl)pyrimidine-2,4-diamine]	≤ 50 nM
Ic1cccc(CNc2ccnc(NCCc3ccccc3)n2)c1 [Compound 25, N^4-(3-Iodophenylmethyl)-N^2-(2-phenylethyl)pyrimidine-2,4-diamine]	≤ 50 nM
C[C@H](Nc1cc(NCCOc2ccc(F)cc2)ncn1)c1ccccc1 [Example 16, N^4-[2-(4-Fluorophenoxy)ethyl]-N^6-[(1S)-1-phenylethyl]pyrimidine-4,6-diamine]	≤ 50 nM
C[C@H](Nc1nc(N)nc(NCCOc2ccccc2)n1)c1cccc2ccccc12 [Compound 42, N^2-[(1S)-1-(1-Napthyl)ethyl]-N^4-[2-(phenoxy)ethyl]-1,3,5-triazine-2,4,6-triamine]	51 to 100 nM
Cc1ccc(CCNc2nc(N)nc(N[C@@H](C)c3ccc(Br)cc3)n2)cc1 [Compound 34, N^2-[(1S)-1-(4-Bromophenyl)ethyl]-N^4-[2-(4-methylphenyl)ethyl]-1,3,5-triazine-2,4,6-triamine]	101 to 200 nM
CC(CNc1nc(N)nc(N[C@@H](C)c2ccccc2)n1)c1ccccc1 (stereo partly drawn) [Compound 37, N^2-[(1S)-1-Phenylethyl]-N^4-(2-phenylpropyl)-1,3,5-triazine-2,4,6-triamine]	101 to 200 nM
C[C@H](Nc1nc(N)nc(NC[C@H]2C[C@@H]2c2ccccc2F)n1)c1ccccc1 [(S,S)-trans-N-[2-(2-Fluoro-phenyl)-cyclopropylmethyl]-N′-(1-phenyl-ethyl)-[1,3,5]triazine-2,4,6-triamine]	≤ 50 nM
CC[C@H](Nc1nc(N)nc(NCCc2cccc(F)c2)n1)c1ccccc1 [Compound 63, N^2-[2-(3-Fluorophenyl)ethyl]-N^4-[(1S)-1-phenylpropyl]-1,3,5-triazine-2,4,6-triamine]	≤ 50 nM
CC[C@@H](Nc1ccnc(NCCOc2ccccc2)n1)c1ccccc1 [N^2-(2-Phenoxyethyl)-N^4-[(1R)-1-phenylpropyl]pyrimidine-2,4-diamine]	101 to 200 nM
C[C@@H](Nc1ccnc(NCCOc2ccccc2)n1)c1ccccc1 [N^2-(2-Phenoxyethyl)-N^4-[(1R)-1-phenylethyl]pyrimidine-2,4-diamine]	101 to 200 nM
C[C@H](Nc1nc(N)nc(NCCc2cccc(F)c2)n1)c1ccc(Br)cc1 [Compound 68, N^2-[(1S)-1-(4-Bromophenyl)ethyl]-N^4-[2-(3-fluorophenyl)ethyl]-1,3,5-triazine-2,4,6-triamine]	≤ 50 nM
CC[C@H](Nc1nc(N)nc(NCCc2ccc(F)cc2)n1)c1ccccc1 [Compound 67, N^2-[2-(4-Fluorophenyl)ethyl]-N^4-[(1S)-1-phenylpropyl]-1,3,5-triazine-2,4,6-triamine]	≤ 50 nM
COc1cccc(CCNc2nc(N)nc(N[C@@H](C)c3ccc([N+](=O)[O-])cc3)n2)c1 [Compound 77, N^2-[2-(3-Methoxyphenyl)ethyl]-N^4-[(1S)-1-(4-nitrophenyl)ethyl]-1,3,5-triazine-2,4,6-triamine]	≤ 50 nM
Brc1cccc(CNc2ccnc(NCCc3ccccc3)n2)c1 [Compound 26, N^4-(3-Bromophenylmethyl)-N^2-(2-phenylethyl)pyrimidine-2,4-diamine]	≤ 50 nM
CS(=O)(=O)Nc1cccc(CNc2ccnc(NCCOc3ccccc3)n2)c1 [Compound 14, N^4-{3-[(Methylsulfonyl)amino]phenylmethyl}-N^2-(2-phenoxyethyl)pyrimidine-2,4-diamine]	≤ 50 nM
